Measurements as given in ChEMBL document CHEMBL5058564, “EUbOPEN Chemogenomics Library 2 (Incucyte)” (2022).

How the values were obtained:
Type in all cases: toxicity, cell-based
HEK-293T = experiment: Incucyte cell viability with HEK293T; settings: human, 10 µM, compound concentration 10 uM
Fibroblast = experiment: Incucyte cell viability with human fibroblast; settings: 10 µM, compound concentration 10 uM
U2OS = experiment: Incucyte cell viability with U2OS; settings: human, 10 µM, compound concentration 10 uM
[1] = 6 h, replicate number 1, timepoint 6 hours
[2] = 6 h, replicate number 2, timepoint 6 hours
[3] = 12 h, replicate number 1, timepoint 12 hours
[4] = 12 h, replicate number 2, timepoint 12 hours
[5] = 18 h, replicate number 1, timepoint 18 hours
[6] = 18 h, replicate number 2, timepoint 18 hours
[7] = 24 h, replicate number 1, timepoint 24 hours
[8] = 24 h, replicate number 2, timepoint 24 hours
[9] = 0 h, replicate number 2, timepoint 0 hours
[10] = 0 h, replicate number 1, timepoint 0 hours
Note: unitless GR value; below 1 slowed growth and below 0 cell loss.

| Compound | Growth Rate (HEK-293T; [1]) | Growth Rate (HEK-293T; [2]) | Growth Rate (HEK-293T; [3]) | Growth Rate (HEK-293T; [4]) | Growth Rate (HEK-293T; [5]) | Growth Rate (HEK-293T; [6]) | Growth Rate (HEK-293T; [7]) | Growth Rate (HEK-293T; [8]) | Growth Rate (Fibroblast; [1]) | Growth Rate (Fibroblast; [2]) | Growth Rate (Fibroblast; [3]) | Growth Rate (Fibroblast; [4]) | Growth Rate (Fibroblast; [5]) | Growth Rate (Fibroblast; [6]) | Growth Rate (Fibroblast; [7]) | Growth Rate (U2OS; [10]) | Growth Rate (U2OS; [9]) | Growth Rate (U2OS; [2]) | Growth Rate (U2OS; [4]) | Growth Rate (U2OS; [6]) | further results |
| --- | --- | --- | --- | --- | --- | --- | --- | --- | --- | --- | --- | --- | --- | --- | --- | --- | --- | --- | --- | --- | --- |
| CC(C)CC(=O)Nc1cncc(-c2ccc3[nH]nc(-c4nc5c(-c6cccc(F)c6)cncc5[nH]4)c3c2)c1 [LORECIVIVINT] | -0.81 | -0.95 | -0.55 | -0.81 | -0.48 | -0.64 | -0.44 | -0.57 | -0.2 | -0.06 | 0.36 | -0.03 | 0.73 | 0.01 | 0.43 | -0.33 | -0.94 | -0.16 | 0.32 | 0.98 | Growth Rate (Fibroblast; [9]): 0.49; Growth Rate (Fibroblast; [8]): -0.02; Growth Rate (U2OS; [1]): -0.82; Growth Rate (U2OS; [3]): -0.56; Growth Rate (U2OS; [5]): -0.16; Growth Rate (U2OS; [7]): 0.71 |
| C[C@@H]1C[C@H]2[C@@H]3CCC4=CC(=O)C=C[C@]4(C)[C@@]3(F)[C@@H](O)C[C@]2(C)[C@@]1(O)C(=O)CO [DEXAMETHASONE] |  |  | 0.98 |  | 0.86 |  | 0.7 | 0.99 | 0.88 |  |  |  |  |  |  | 0.07 | -1 | 0.65 |  | 0.95 | Growth Rate (HEK-293T; [10]): 0.4; Growth Rate (Fibroblast; [10]): 0.73 |
| Cc1nc2ccc(Oc3ccc(F)cc3)cc2c(=O)n1C[C@H]1CCCN(C(C)C)C1.Cl | 0.01 | 0.52 | -0.18 | 0.29 | -0.23 | 0.13 | -0.2 | -0.05 | -0.24 | -0.65 | -0.26 | -0.42 | -0.42 | -0.21 | -0.38 |  |  | 0.98 | 0.97 | 0.96 | Growth Rate (Fibroblast; [8]): -0.28; Growth Rate (U2OS; [1]): -0.6 |
| Cc1nc(C#Cc2cccnc2)cs1.Cl | 0.68 |  | 0.63 | 0.87 | 0.84 | 0.94 | 0.76 | 0.73 | 0.49 | 0.58 | 0.32 |  | 0.37 |  | 0.25 | 0 | 0.3 | 0.72 | 0.84 |  | Growth Rate (HEK-293T; [10]): 0.27; Growth Rate (HEK-293T; [9]): 0.23; Growth Rate (Fibroblast; [9]): 0.91; Growth Rate (U2OS; [5]): 0.97 |
| N#Cc1c(N)nc(SCc2csc(-c3ccc(Cl)cc3)n2)c(C#N)c1-c1ccc(OCCO)cc1 [CAPADENOSON] | 0.99 | 0.69 | 0.54 | 0.46 | 0.36 | 0.44 | 0.31 | 0.41 | -0.5 | 0.85 | -0.47 | 0.37 | -0.41 | 0.66 | -0.34 | 0.75 | 0.97 |  | 0.81 | 0.87 | Growth Rate (HEK-293T; [10]): 0.41; Growth Rate (HEK-293T; [9]): 0.32; Growth Rate (Fibroblast; [10]): 0.09; Growth Rate (Fibroblast; [9]): -0.41; Growth Rate (Fibroblast; [8]): 0.54; Growth Rate (U2OS; [1]): 0.52; Growth Rate (U2OS; [3]): 0.6; Growth Rate (U2OS; [5]): 0.66; Growth Rate (U2OS; [7]): 0.79; Growth Rate (U2OS; [8]): 0.83 |
| O=C(Nc1cc(C(F)(F)F)ccc1N1CCN(Cc2ccccn2)CC1)c1ccc(-c2ccncc2)o1 | 0.44 | 0.41 | -0.16 | -0.05 | -0.1 | -0.19 | -0.03 | -0.11 | 0.13 | -0.21 | -0.19 | 0.06 | 0.1 | 0.16 | 0.21 | -0.79 | -1 |  | 0.93 | 0.83 | Growth Rate (HEK-293T; [10]): 0.95; Growth Rate (HEK-293T; [9]): 0.73; Growth Rate (Fibroblast; [10]): 0.86; Growth Rate (Fibroblast; [8]): 0.56; Growth Rate (U2OS; [8]): 0.76 |
| CCS(=O)(=O)Nc1ccc(Oc2ccc(F)cc2F)c(-c2cn(C)c(=O)c3[nH]ccc23)c1 [MIVEBRESIB] |  |  |  | 0.78 | 0.75 | 0.41 | 0.4 | 0.28 | -0.16 | 0.52 |  |  |  |  |  |  | -0.35 | 0.85 |  |  | Growth Rate (U2OS; [8]): 0.95 |
